Assay results: US9927437B2, “Treating neurodegenerative disease” (THE BRIGHAM AND WOMEN'S HOSPITAL, INC., priority 2013, dated 2018)
“Also recorded” adds a separate entry of the source.

Legend:
inflammatory monocytes = experiment: Recruitment of inflammatory monocytes to the CNS of EAE NOD mice (flow cytometry); format: in vivo, mouse; settings: PDMP as in FIG. 1k, CD11b+Ly6C^high or CD11b+CD45^high
Ly6C^high monocytes = experiment: Response of Ly6C^high monocytes to LPS/IFNγ (nCounter); format: cell-based, mouse; settings: LPS/IFNγ 6 h
human primary astrocytes = experiment: Activation of human primary astrocytes with IL-1β or poly(I:C), qPCR; format: cell-based; settings: PDMP 25 μM; IL-1β 10 ng/ml or Poly (I:C) 10 μg/ml, 6 h
Source text: FIG. 6a-d. […] Autopsy samples were obtained from lesions (n=10) or NAWM (n=5) from MS, non-MS CNS inflammatory diseases (NMSCID, including viral encephalitis, Rasmussen's encephalitis and ADEM, n=5) patients and healthy controls (n=6). (a) qPCR analysis of B4GALT5 and B4GALT6 mRNA expression in CNS samples relative to ACTB. (b) IF analysis of B4GALT6, CCL2 and iNOS in GFAP+ astrocytes in NAWM and Lesion of MS patients. (c) LacCer levels determined in CNS samples, relative to protein content. Statistical analysis by one-way ANOVA, followed by Tukey post-hoc analysis. (d) Primary human astrocytes were pre-treated with PDMP (25 μM) or vehicle, and activated with IL-1β (10 ng/ml) or Poly (I:C) (10 μg/ml) or left untreated (control). RNA was harvested 6 h later and the expression of CCL2, CCL5, COX2, IL6, NOS2, and TLR2 was analyzed by qPCR relative to ACTB in 3 independent experiments. Statistical analysis by Student's t-test. Data presented are mean and s.e.m. *P<0.05, **P<0.01 and ***P<0.001.
Human fetal astrocytes were isolated as previously described^57 from human CNS tissue from fetuses at 17-23 wk of gestation obtained from the Human Fetal Tissue Repository (Albert Einstein College of Medicine, Bronx, N.Y.) following Canadian Institutes for Health Research-approved guidelines. Cultures were >90% pure.

C8-D30 astrocytes = experiment: In vitro knock-down with shRNA in C8-D30 astrocytes, LPS/IFNγ activation; format: cell-based, mouse; settings: lentivirus-delivered shRNA
C57BL/6 mice = experiment: EAE in C57BL/6 mice; format: in vivo; settings: 10 μg per mouse with MOG35-55 at induction and i.p. every 3 days
[1] = tested on: Naïve C57BL/6 and NOD mice; experiment: LacCer administration to naïve mice without MOG immunization; format: in vivo; settings: 10 μg per mouse, absence of MOG immunization
Procedure: FIGS. 12a-i. […] (a) Naïve C57BL/6 (Left panel) and NOD (right panel) mice were treated with LacCer (10 μg per mouse) or vehicle as indicated by red arrows, and EAE clinical scores was recorded. At experimental end point (day 25), astrocytes were isolated and their transcriptional profile was determined by nCounter Nanostring analysis. (b-e) EAE was induced in C57BL/6 (b, c) or NOD mice (d, e) and LacCer or vehicle were administrated as in FIGS. 1g and 1h, respectively. Splenic T-cell recall response to MOG(35-55) (20 μg/ml); proliferation (b, d) and secretion of IL-17A, IFN-γ and IL-10 cytokines (c, e). Data are representative of two independent experiments with ≥8 mice/group (mean and s.e.m.). (f-i) EAE NOD mice were treated with PDMP or vehicle during the chronic phase as in FIG. 1K. Data are representative of three independent experiments with n≥8 mice/group (mean and s.e.m.). (f) qPCR analysis of the expression of tbx21, ifng, rorc, il17A, csf2, il10, foxp3, and tgfb1 mRNA of CD3^+CD4^+ T-cells isolated from the CNS; expression is presented relative to gapdh. (g, h) Recall response to MOG(35-55) (20 μg/ml); proliferation (g) and secretion of IL-17A, IFN-γ and IL-10 cytokines (h). (i) Expression of IFN-γ, IL-17A, Foxp3 and IL-10 by splenic CD3^+CD4^+ T cells (mean and s.e.m.).

[2] = tested on: leptomeningeal phagocytes; experiment: Transcriptional response of leptomeningeal phagocytes to LPS/IFNγ; format: cell-based, mouse; settings: LacCer 10 μM 1 h, LPS/IFNγ 6 h
Procedure: (§1) FIGS. 15a-b. […] Leptomeningeal phagocytes (a) and choroid plexus cells (b) were pre-treated for 1 h with LacCer (10 μM), or vehicle control (vehicle), followed by activation with LPS/IFNγ for 6 h, or left un-treated (control, Con). mRNA expression was determined by nCounter Nanostring analysis. Representative data of two independent experiments.
The meninges were carefully stripped from the brains of 1- to 3-day-old neonatal mice, and digested with 1% collagenase for 20 min at 37° C., and then dispersed into a single-cell level. Isolated cells, were incubated with anti-mouse CD16/CD32 for 15 min on ice to block the Fc receptors, and stained with APC-conjugated antibody for CD11b (M1/70) for 30 min at 4° C. Cells were washed, incubated with 7-AAD for exclusion of dead cells, and sorted.

choroid plexus cells = experiment: Transcriptional response of choroid plexus cells to LPS/IFNγ; format: cell-based, mouse; settings: LacCer 10 μM 1 h, LPS/IFNγ 6 h
Procedure: as §1
Mouse primary choroid plexus cells were prepared as described^55,56 with minor modifications. In brief, the choroid plexus was removed from 1- to 3-day-old neonatal mice, digested with 1% collagenase for 20 min at 37° C., and then dispersed into a single-cell level. The cell suspension was washed in culture medium for choroid plexus cells [Dulbecco's modified Eagle medium/Ham's F12 (Invitrogen) supplemented with 10% foetal calf serum (Sigma-Aldrich), 1 mM 1-glutamine, 1 mM sodium pyruvate, 100 U/ml penicillin, […] streptomycin, […] insulin, […] Ara-C) and cultured (2.5×10^5 cells/well) at 37° C., 5% CO2 in poly-D-lysine coated 24-well plates. After 24 h, the medium was changed, and the cells were either left untreated or treated as described.

CCCCCCCCCC(=O)N[C@H](CN1CCOCC1)[C@H](O)c1ccccc1 [PDMP, D-threo-1-phenyl-2-decanoylamino-3-morpholino-1-propanol]
frequency of inflammatory monocytes recruited to the CNS (inflammatory monocytes): significantly reduced
total numbers of inflammatory monocytes recruited to the CNS (inflammatory monocytes): significantly reduced
monocyte response to LPS/IFNγ stimulation (Ly6C^high monocytes): did not affect
CCL2, CCL5, COX2, IL6, NOS2 and TLR2 expression (human primary astrocytes): significant decrease

shB4galt6: lentivirus-delivered shRNA against b4galt6 (TRCN0000334278; SEQ ID NO:3) (guide CGATGGACTGAACAATTTATTCTCGAGAATAAATTGTTCAGTCCACG)
up-regulation of h2-Aa, ccl5 and cxcl10 expression (C8-D30 astrocytes): significantly suppressed the up-regulation

lactosylceramide [LacCer]
EAE clinical scores (C57BL/6 mice): significant worsening of EAE
induction of EAE-like disease [1]: did not result in the induction of EAE-like disease
monocyte response to LPS/IFNγ stimulation (Ly6C^high monocytes): did not affect
transcriptional response to activation of leptomeningeal phagocytes [2]: did not affect the transcriptional response; also recorded: does not affect the transcriptional response
transcriptional response to activation of choroid plexus cells (choroid plexus cells): did not affect the transcriptional response; also recorded: does not affect the transcriptional response
